We go through eleven compounds from patent US4921871A, “Enolamides, pharmaceutical compositions and methods of use thereof for treating inflammation” (Warner-Lambert Company, priority 1987, dated 1990).

Test [1] concerns the target T1, human leukocyte 5-lipoxygenase (Homo sapiens, UniProt P09917).
T1 construct: endogenous in cells; host or cells: leukocytes from fresh human blood
T1 sequence (P09917 1-674): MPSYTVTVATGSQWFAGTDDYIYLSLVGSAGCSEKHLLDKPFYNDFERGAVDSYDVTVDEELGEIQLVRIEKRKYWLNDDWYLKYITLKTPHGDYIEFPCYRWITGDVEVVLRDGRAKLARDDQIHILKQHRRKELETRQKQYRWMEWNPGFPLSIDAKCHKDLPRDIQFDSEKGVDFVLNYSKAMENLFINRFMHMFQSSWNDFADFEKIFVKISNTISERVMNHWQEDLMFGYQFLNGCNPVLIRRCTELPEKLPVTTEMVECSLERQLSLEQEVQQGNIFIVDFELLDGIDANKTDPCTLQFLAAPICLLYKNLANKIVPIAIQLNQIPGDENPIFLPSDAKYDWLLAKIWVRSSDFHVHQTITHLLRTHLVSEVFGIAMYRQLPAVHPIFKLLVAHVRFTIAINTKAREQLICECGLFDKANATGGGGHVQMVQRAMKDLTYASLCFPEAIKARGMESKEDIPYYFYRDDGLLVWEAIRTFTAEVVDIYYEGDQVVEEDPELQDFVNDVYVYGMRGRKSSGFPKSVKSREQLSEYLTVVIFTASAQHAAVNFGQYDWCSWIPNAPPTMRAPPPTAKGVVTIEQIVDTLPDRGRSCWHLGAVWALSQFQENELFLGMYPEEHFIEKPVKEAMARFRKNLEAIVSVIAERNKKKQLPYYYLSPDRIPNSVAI
Briefly: 5-Lipoxygenase assay in human leukocytes, formation of 5-HETE (5LOA; 5LOA1 or 5LOA2 not specified). In kind it is cell-based. The text has this:
To Evaluate the Effect of Each Compounds as a 5-Lipoxygenase Inhibitor in Comparison to Standard Reference Agents in Human Leukocytes (5LOAl)
The purpose of this assay is to evaluate the activity of each compound as an inhibitor of human leukocyte 5-lipoxygenase.
Arachidonic acid and calcium ionophore A23l87 are obtained from Sigma (St. Louis, Mo.). Silica gel plates, GF are obtained from Analtech (Newark, Del.). Arachidonic acid, (1-^14 C) and 5-HETE (^3 H), 5 (S)-hydroxy-6-trans, 8,11,14-cis eicosatetraenoic acid, are obtained from New England Nuclear (Boston, Mass.). Six percent Dextran-70 in 0.9% NaCl is obtained from Cutter Labs (Berkeley, Calif.).
Fresh blood from normal adult men who had not received any drugs for at least the previous five days is obtained by the Community Research Clinic (WL/PD) using venipuncture and collected into heparinized vacuotainer tubes. To every 100 ml of pooled blood is added 25 ml of dextran solution (6% dextran -70 in 0.9% sodium chloride containing 3% dextrose) and this is mixed gently in a plastic cylinder. The mixture is left to stand at room temperature for at least 90 minutes. The upper layer which is rich in leukocytes and platelets is then carefully decanted into 50 ml plastic tubes and centrifuged at about 100×g for eight minutes in an IEC centrifuge and rotor number 269 (about 600 rpm). The supernatant fluid is discarded and the pellet is resuspended in 10 ml of 0.87% ammonium chloride for exactly two minutes. This procedure is to lyse completely contaminating red blood cells. Leukocytes are then separated by centrifugation for ten minutes. The pellet is washed three times by suspension in 20 ml PBS (sodium chloride, 7.1 g; Na2 HPO4, 1.15 g; KH2 PO4, 0.2 g, and KCl, 0.2 g/L) and centrifuged as before. The final pellet is suspended in PBS containing 0.87 mM CaCl2. Viability of the cells is then checked using trypan blue exclusion method and is found to be over 90%.
Leukocyte cells in suspension (0.98 ml) are incubated with or without test compounds for five minutes at 37° C. in a shaking water bath. At this time a 17 μl mixture is prepared per 1 ml of cell suspension: 100 mM arachidonic acid, 1 μl, 0.05 μCi ^14 C-arachidonic acid in 5 .rho.l; 1 mM calcium ionophore A23187, 10 μl (1). This mixture is added and the incubation continued for five minutes. The reaction is stopped by adding four volumes of absolute ethanol and the mixture is kept in ice for 30 minutes. The floculated precipitate is separated by centrifugation at about 37,000×g for 20 minutes (Beckman Instruments rotor number 40). The alcohol extract is taken to dryness under a stream of nitrogen and the residue is dissolved in 100-200 μl absolute ethanol. At the time any turbidity is removed by centrifugation. An aliquot (25-50 μl) is applied onto 20×20 cm silica gel TLC plate and developed using the following solvent system: diethyl ether, petroleum ether (2040° C.), acetic acid (50:50: 1 v/v). Zones of 1 cm apart are scraped from the TLC plate and transferred to mini-vials. Methanol (0.5 ml) is added to dissolve the radioactivity adsorbed to the silica gel and scintillation fluid (H.P., Beckman), 5 ml is then added and vials are counted in a liquid scintillation counter. A sample of ^3 H-5-HETE is applied and used for the identification of the formed 5-HETE.
Total radioactivity in the test as well as the control samples are normalized and the amount of 5-HETE present is calculated accordingly.
IC50 values are defined as the concentrations of test agents which caused a 50% inhibition of the formation of 5-HETE as compared to control and are determined by inspection of the concentration-response curves.
The formation of 5-HETE in human leukocytes is considered a measure of 5-lipoxygenase activity. The protocol is described in the following.
Fresh heparinized or EDTA treated human blood is mixed with 6% dextran-3% dextrose in isotonic saline in the ratio 0.25 ml dextran solution per 1.0 ml blood. […]

Test [2] concerns Human Leukocyte Lipoxygenase. Put plainly: Human Leukocyte Lipoxygenase Assay (LDA-H). Format: biochemical. On the procedure:
Whole blood is collected from normal volunteers and spun in a refrigerated centrifuge for four minutes at 1°-6° C. at 3800 g. The buffy coat is manually separated and washed twice with chilled 0.83% NH4 Cl and centrifuged at 1000 RPM for ten minutes at 4° C. The white cell is suspended in culture media-EMEM supplemented with 6% Agamma human serum, tricine buffer, and neomycin and recentrifuged at 1000 g to yield a pellet containing the leukocytes used for the preparation of the acetone pentane powder.
The acetone-pentane powder is prepared utilizing a modification of the procedure reported for human platelet lipoxygenase. See Siegel, et al, Arachidonate Metabolism via Lipoxygenase and 12-L-hydro-peroxy-5 Eicosatetraenoic Acid Peroxidase Sensitive to Antiinflammatory Drugs, Proc. Natl. Acad. Sci., U.S.A. 77:308, 1980 and D. P. Wallach and V. R. Brown, A Novel Preparation of Human Platlet Lipoxygenase, Biochem. Biophys. Acta. 663:361, 1981. Buffy coat prepared above is resuspended in 5-7 volumes of cold 0.1M Tris buffer, pH 7.4 containing 0.154M NaCl. The suspension is centrifuged at 13,300 g for ten minutes at 4° C. The resultant pellet is retained, resuspended in five volumes of cold acetone, recentrifuged at 13,300 g and resuspended in five volumes of cold pentane. The pentane suspension is centrifuged for ten minutes at 13,300 g to give a pellet which is dried in the cold under vacuum with periodic pulverization. The dry powder is stable for several weeks when stored at -80° C.
Enzyme stock solution is prepared in the following manner. About 15 mg of the acetone-pentane powder is suspended in 4 ml of cold tris buffer (0.1M, pH 7.4), allowed to stand for five minutes, and homogenized thoroughly. The homogenate is sonicated three times for 15 seconds each time, diluted to 7 ml with cold tris buffer (0.1M, pH 7.4), and centrifuged at 4° C. for 60 minutes at 13,300 g. The supernatent is retained and diluted to a total of 10 ml with cold tris buffer (0.1M, pH 7.4) to give the stock enzyme solution. Additional dilutions of 2-50 fold are done as necessary to locate optimal enzyme reaction rate in the assay described below.
Substrate solution is prepared at 100 μM or 1.0 μM concentrations of arachidonic acid or linoleic acid in 0.1M tris buffer, pH 9.0 containing 20% ethanol.
The enzyme reaction is followed spectrophotometrically by the appearance of a conjugated diene product at 234 nm. The reaction is monitored at 24° C. using a Gilford Model 2600 spectrophotometer. […] The effects of inhibitors on the reaction are compared with control reactions run under indentical conditions. Routinely, each compounds of the present invention is incubated with the enzyme for five minutes prior to addition of substrate to initiate the reaction. Inhibition expressed as IC50 as molar concentration of the compound required to reduce reaction rate to 50% control.

Regarding `COc1ccc(CCc2ccc(NC(=O)C(=O)c3[nH]c4cc(C)c(C)cc4c3O)cc2)cc1OC` [Example 175, 1H-Indole-2-acetamide, N-[4-[2-(3,4-dimethoxyphenyl)ethyl]phenyl]-3-hydroxy-5,6-dimethyl-α-oxo], the “5LOA, % Inhibition” value in test [1] (1.00 E -5 M) was found to be 7.0%; in test [1] (2.00 E -5 M), 2.0%; in test [1] (2.00 E -6 M) it was 8.0%. Also, the “LDAH, % Inhibition” value in test [2] (2.50 E -5 M) was found to be 0.0%. In the case of `COc1ccc(CCc2ccc(NC(=O)C(=O)c3oc4cc(OC)c(OC)cc4c3O)cc2)cc1OC` [Example 115, 2-Benzofuranacetamide, N-[4-[2-(3,4-dimethoxyphenyl)ethyl]phenyl]-3-hydroxy-5,6-dimethoxy-α-oxo], the “LDAH, % Inhibition” value in test [2] (8.00 E -5 M) turned out to be 0.0%.

For `O=C(Nc1ccc(CCc2ccc(O)c(O)c2)cc1)C1Oc2c(n(-c3ccccc3)c3ccc(O)cc23)C1=O` (stereo not drawn) [Example 163, 2H-Furo[3,2-b]indole-2-carboxamide, N-[4-[2-(3,4-dihydroxyphenyl)ethyl]phenyl]-3,4-dihydro-7-hydroxy-3-oxo-4-phenyl], the “LDAH, % Inhibition” value in test [2] (2.50 E -5 M) is listed as 0.0%. For the compound `COc1ccc(CCc2ccc(NC(=O)C(=O)C3=C(O)c4ccccc4S(=O)(=O)C3)cc2)cc1OC` [Example 3, N-[4-[2-(3,4-Dimethoxyphenyl)ethyl)phenyl]-4-hydroxy-α-oxo-2H-1-benzothiopyran-3-acetamide, 1,1-dioxide], the “LDAH, % Inhibition” value in test [2] (1.00 E -5 M) and in test [2] (2.50 E -5 M) was 0.0% throughout.

As to `O=C(Nc1ccc(CCc2cccc(O)c2)cc1)C1CS(=O)(=O)c2ccccc2C1=O` (stereo not drawn) [Example 82], the “LDAH, % Inhibition” value in test [2] (8.00 E -5 M) turned out to be 0.0%. On to `COc1ccc(CCc2ccc(NC(=O)C(=O)C3Oc4cc5ccccc5cc4C3=O)cc2)cc1OC` (stereo not drawn) [Example 117, Naptho[2,3-b]furan-2-acetamide, N-[4-[2-(3,4-dimethoxyphenyl)ethyl]phenyl]-2,3-dihydro-α,3dioxo], for which, in test [2] (2.50 E -5 M), the “LDAH, % Inhibition” value is given as 0.0%. For `COc1ccc(CCc2ccc(NC(=O)C3Oc4cc5ccccc5cc4C3=O)cc2)cc1OC` (stereo not drawn) [Example 101, Naphtho[2,3-b]furan-2-carboxamide, N-[4-[2-(3,4-dimethoxyphenyl)ethyl]phenyl]-2,3-dihydroxy-3-oxo], the “LDAH, % Inhibition” value in test [2] (2.50 E -5 M) is reported as 0.0%. Still for that read-out and setting: for `CCCCCCCCc1ccc(NC(=O)C2CS(=O)(=O)c3ccccc3C2=O)cc1` (stereo not drawn) [Example 59, 3,4-Dihydro-N-(4-octylphenyl)-4-oxo-2H-1-benzothiopyran-3-carboxamide, 1,1-dioxide] the value was 0.0%. As to `O=C(Nc1ccc(CCc2ccc(C(F)(F)F)cc2)cc1)C1CS(=O)(=O)c2ccccc2C1=O` (stereo not drawn) [Example 44], the “5LOA, % Inhibition” value is “+19.6%” in test [1] (1.00 E -5 M), “+5.8%” in test [1] (2.00 E -5 M) and 30.0% in test [1] (4.00 E -5 M). Also, the “LDAH, % Inhibition” value in test [2] (2.50 E -5 M) turned out to be 0.0%. On to `COc1ccc(CCc2ccc(NC(=O)C3CS(=O)(=O)c4ccccc4C3=O)cc2)cc1NC(C)=O` (stereo not drawn) [Example 50, N-[4-[2-(3-Acetylamino-4-methoxy)ethyl]phenyl]-3,4-dihydro-4-oxo-2H-1-benzothiopyran-3-carboxamide, 1,1-dioxide], for which the “LDAH, % Inhibition” value in test [2] (8.00 E -5 M) was 0.0%. Same read-out and setting: as for `CCOC(=O)c1ccc(CCc2ccc(NC(=O)C3CS(=O)(=O)c4ccccc4C3=O)cc2)cc1` (stereo not drawn) [Example 47, 4-[2-[4-[[(3,4-Dihydro-4-oxo-2H-1-benzothiopyran-3-yl)carbonyl]amino]phenyl]ethyl]benzoic acid, ethyl ester, 1,1-dioxide], the figure is 0.0%.
